# Laboratory results from patent US20250179024A1, “AMYLOID AND ASSOCIATED PATHOLOGY MODULATORS AND METHODS THEREOF” (Jawaharlal Nehru Centre for Advanced Scientific Research, priority 2022, published 2025).
# Tests used:
# [1] = target: T1, Aβ in the presence of Zn (II) (Homo sapiens, UniProt P05067); experiment: Zn-dependent Aβ aggregation, native PAGE and western blot; format: biochemical; conditions: Aβ 10 μM, Zn (II) 20 μM, NMIs 20 μM, 37° C., 48 h
# T1 construct: is a 42 amino acid proteolytic product from the amyloid precursor protein; purchased Invitrogen
# T1 sequence (P05067 672-713 limits assumed): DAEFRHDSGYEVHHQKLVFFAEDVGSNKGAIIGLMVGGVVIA
# Method: The samples were prepared by incubating Aβ42 with specific concentration of NMI compounds of present disclosure and metal ions for 48 h and then subjected to 6% native polyacrylamide gel electrophoresis (Native-PAGE) in tris-glycine buffer. The lower molecular weight aggregates permeabilized through the gel and resolved in the gel. Higher molecular aggregates stuck in the upper part of wells and potentially carried in gel. Then the protein was transferred to PVDF membrane for 4 h at cold condition maintained using ice cold transfer buffer and immersing the transfer apparatus in ice. Then the blots were continued similar to dot blots.
# The absorbance and fluorescence spectroscopy studies together with mass spectrometry data confirmed the selective Cu (II) or Zn (II) chelation property of M1 and M3. […] Aβ (10 μM) was incubated in the presence of Cu (II) or Zn (II) (20 μM) with NMIs at 37° C. for 48 h and the samples were subjected to native PAGE and western blot analysis. […] Modulation of Zn-dependent Aβ aggregation by M4 was attributed to its two Zn (II) chelation centres. M3 with dopamine and DPA moieties effectively modulated both Cu (II) and Zn (II)-dependent Aβ aggregation. The effect of NMIs on the morphological outcome of metal-dependent Aβ aggregation was visualized by AFM imaging (FIGS. 1E and 1F). Aβ in the presence of Cu (II) and Zn (II) formed dense and thick fibrils.
# SH-SY5Y cells [2] = experiment: MTT cytotoxicity assay; format: cell-based; conditions: 24 h, up to 200 μM
# Method: The SH-SY5Y cells were seeded onto 96 well plates at cell density of 25,000 cells per well and incubated. After 24 h cells were treated with different concentration of compounds (10, 20, 50, 100 and 200 μM) and incubated. After 24 h MTT (5 mg/mL) was added to the cells and incubated for 3 h, removed media and DMSO/Methanol (1:1) solution added to dissolve formazan crystals. The absorbance was recorded at 570 nm and the percentage cell viability was calculated with respect to control cells treated with vehicle (DMSO).
# NMIs modulated metal-independent and dependent Aβ aggregation, reduced ROS in vitro and in cellulo, and rescue cells from oxidative stress. The biocompatibility, the cytotoxicity of compounds of the present disclosure to neuronal cells were evaluated by MTT assay. SH-SY5Y cells were treated with different concentrations of modulators (NMIs) for 24 h and performed MTT assay to determine the cell viability.
# SH-SY5Y cells [3] = experiment: Imaging of mitochondrial structural changes, Mito-TG; format: cell-based; conditions: Aβ 20 μM, 18 h, Mito-TG staining
# Method: The effect of NMIs (M3) on Aβ induced structural damage to mitochondria was assessed and Mito-TG probe was used for imaging mitochondria. SH-SY5Y cells were seeded onto confocal dishes and incubated for 24 h. Then cells were treated with Aβ (20 μM) alone and with M3 (50 μM) and incubated for […]. Followed by PBS washing, and stained with Mito-TG (250 nM) for 20 min. Cells were washed thrice with dPBS and imaged in live cell set up in rhodamine channel using 63× oil immersion using Leica DMi8 fluorescence microscope.
# Aβ-associated functional abnormalities induced structural defects in mitochondria. The effect of M3 to prevent structural damage was assessed by staining the cells with Mito-TG, a mitochondrial probe. The cells were treated with Aβ (20 μM) alone and with M3 for 18 h, followed by Mito-TG staining and fluorescence microscopic imaging to visualize the structural changes. The Aβ treatment deformed mitochondria with fragmented morphology in comparison to the long tubular structure of healthy cells (FIG. 14C). […] Collectively, these structural and functional studies of mitochondria confirmed that M3 is a potential modulator of Aβ-induced toxicity to protect mitochondrial damage.
# C6 microglial cells = experiment: Bio-AFM study of microglial activation; format: cell-based; conditions: Aβ 5 μM, compound 10 μM
# Method: Microglia activation and its alleviation was studied by Bio-AFM technique combining the indirect immunofluorescence by confocal microscopy and cellular mechanical properties characterization by AFM. C6 microglia was used as model cells and Aβ as pathological stimuli for the study. C6 cells were cultured in glass bottom confocal dishes to attain 70% confluence. The cells were primed to activation by using 500 ng/mL of LPS in low serum media (2.5% FBS). Then microglial cells were treated with 5 μM Aβ42 alone and with NMIs (M3) for 18 h. Then the cells were fixed and probed for Iba1 marker by indirect immunofluorescence, counter stained with Phalloidin rhodamine (200 nM) for actin labeling to visualize the actin distribution and DAPI (1 μM) for labeling the nucleus. The samples were washed thrice using dPBS and subjected to Bio-AFM imaging.
# The Bio-AFM studies were performed in Bioscope Resolve AFM integrated with Olympus Fluoview-3000 Confocal laser scanning microscope (Bruker). The original confocal stage was removed and replaced with the Bruker Bio-AFM stage. For the confocal images aspect ratio was fixed to 4:3 with channel size of 640×480 and 3-point calibration was done to obtain proper overlay and pixel scaling was optimized by setting 0.375 μ/pixel. Region of interest was selected in the confocal using 60× oil immersion objective (Olympus plan Apo N) and on selected region AFM probe was landed using MIROVIEW window. Peak Force Quantitative Nanomechanical Mapping (PF-QNM) in Fluid mode was used for imaging the cells wherein this mode works based on Peakforce tapping principle. From this mode, height, log DMT and adhesion force of the samples was recorded. The log DMT was calculated using Derjaguin, Muller, Toropov (DMT) model using the formula given below. Studies were performed using MLCT BIO-F probe made up of non-conductive silicon nitride, coated with reflective Au with spring constant of 0.60 N/m and tip radius of 20 nm. Images were recorded with scanning speed of 0.5 Hz with 512 samples per line. The confocal images were recorded in DAPI, Alex488 and rhodamine channels. AFM data was analyzed using NanoScope analysis software (1.9 version) and confocal images were analyzed using Image J. Ftip=4/3E*√Rd3+Fadh, where Ftip=Force on tip, Fadh=Adhesion force, R=Tip radius and d=Tip sample separation.
# C6 microglial cells were used as model and Aβ as stimuli for microglial activation that mimics AD conditions. The C6 cells were primed with LPS (500 ng/mL) for 4 h followed by treatment with Aβ (5 μM) alone and with M3 (10 μM) for 18 h. The cells were stained for Iba1, actin (phalloidin-rhodamine) and nucleus (DAPI), and the samples were subjected to confocal and AFM imaging using integrated Bio-AFM instrument.
smiles,measurement,setting,value
"O=C1c2cccc3c(N(Cc4ccccn4)Cc4ccccn4)ccc(c23)C(=O)N1CCc1ccc(O)c(O)c1 [M3, 6-(bis(pyridin-2-ylmethyl)amino)-2-(3,4-dihydroxyphenethyl)-1H-benzo[de]isoquinoline-1,3(2H)-dione]",Zn-dependent Aβ aggregation,[1],reduce Zn-dependent Aβ aggregation
same,cytotoxicity,SH-SY5Y cells [2],minimal toxicity
same,mitochondrial structure,SH-SY5Y cells [3],protected normal long tubular structures
same,log DMT modulus (cellular stiffness),"C6 microglial cells; Aβ treated ~2.06±0.20 Pa, control ~1.38±0.19 Pa",~1.32±0.15
same,height of microglial cells,"C6 microglial cells; activated ~5.13±0.29, control ~2.03±0.18",~3.03 µm
same,adhesive force,"C6 microglial cells; activated ~5.30±0.24, control 3.21±0.23",~3.57±0.25 nN
same,Iba1 level compared to Aβ treated cells,"C6 microglial cells; LPS 500 ng/mL, 18 h",reduced significantly
same,Iba1 localisation with actin,"C6 microglial cells; LPS 500 ng/mL, 18 h",reduced the Iba1 localisation with actin
same,actin redistribution to the periphery of Aβ treated microglial cells,"C6 microglial cells; LPS 500 ng/mL, 18 h",reduced
